Experimental data: ChEMBL document CHEMBL1201862, “PubChem BioAssay data set” (2004)
Blank lines part the entries; values can stand above or below the compound they belong to. The source made the active and inactive calls.

Key:
[1] = target: Cyclin-dependent kinase 1 (Homo sapiens, UniProt P06493); type: functional;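 also: Kinome-wide panel profiling, with the target listed as panel member CDC2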
[2] = target: RAC-gamma serine/threonine-protein kinase (Homo sapiens, UniProt Q9Y243); type: functional
[3] = target: Hepatocyte growth factor receptor (Homo sapiens, UniProt P08581); type: functional;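 also: kinase panel profiling across the kinome, with MET as the panel member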
[4] = target: Tyrosine-protein kinase JAK3 (Homo sapiens, UniProt P52333); type: functional
[5] = target: Serine/threonine-protein kinase MRCK alpha (Homo sapiens, UniProt Q5VT25); type: functional
[6] = target: Mitogen-activated protein kinase 8 (Homo sapiens, UniProt P45983); type: functional;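 also: value comes from one member of a kinome-wide kinase profiling panel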
[7] = target: T1, Histone-lysine N-methyltransferase NSD2 (Homo sapiens, UniProt O96028); type: biochemical
T1 sequence (O96028 whole entry): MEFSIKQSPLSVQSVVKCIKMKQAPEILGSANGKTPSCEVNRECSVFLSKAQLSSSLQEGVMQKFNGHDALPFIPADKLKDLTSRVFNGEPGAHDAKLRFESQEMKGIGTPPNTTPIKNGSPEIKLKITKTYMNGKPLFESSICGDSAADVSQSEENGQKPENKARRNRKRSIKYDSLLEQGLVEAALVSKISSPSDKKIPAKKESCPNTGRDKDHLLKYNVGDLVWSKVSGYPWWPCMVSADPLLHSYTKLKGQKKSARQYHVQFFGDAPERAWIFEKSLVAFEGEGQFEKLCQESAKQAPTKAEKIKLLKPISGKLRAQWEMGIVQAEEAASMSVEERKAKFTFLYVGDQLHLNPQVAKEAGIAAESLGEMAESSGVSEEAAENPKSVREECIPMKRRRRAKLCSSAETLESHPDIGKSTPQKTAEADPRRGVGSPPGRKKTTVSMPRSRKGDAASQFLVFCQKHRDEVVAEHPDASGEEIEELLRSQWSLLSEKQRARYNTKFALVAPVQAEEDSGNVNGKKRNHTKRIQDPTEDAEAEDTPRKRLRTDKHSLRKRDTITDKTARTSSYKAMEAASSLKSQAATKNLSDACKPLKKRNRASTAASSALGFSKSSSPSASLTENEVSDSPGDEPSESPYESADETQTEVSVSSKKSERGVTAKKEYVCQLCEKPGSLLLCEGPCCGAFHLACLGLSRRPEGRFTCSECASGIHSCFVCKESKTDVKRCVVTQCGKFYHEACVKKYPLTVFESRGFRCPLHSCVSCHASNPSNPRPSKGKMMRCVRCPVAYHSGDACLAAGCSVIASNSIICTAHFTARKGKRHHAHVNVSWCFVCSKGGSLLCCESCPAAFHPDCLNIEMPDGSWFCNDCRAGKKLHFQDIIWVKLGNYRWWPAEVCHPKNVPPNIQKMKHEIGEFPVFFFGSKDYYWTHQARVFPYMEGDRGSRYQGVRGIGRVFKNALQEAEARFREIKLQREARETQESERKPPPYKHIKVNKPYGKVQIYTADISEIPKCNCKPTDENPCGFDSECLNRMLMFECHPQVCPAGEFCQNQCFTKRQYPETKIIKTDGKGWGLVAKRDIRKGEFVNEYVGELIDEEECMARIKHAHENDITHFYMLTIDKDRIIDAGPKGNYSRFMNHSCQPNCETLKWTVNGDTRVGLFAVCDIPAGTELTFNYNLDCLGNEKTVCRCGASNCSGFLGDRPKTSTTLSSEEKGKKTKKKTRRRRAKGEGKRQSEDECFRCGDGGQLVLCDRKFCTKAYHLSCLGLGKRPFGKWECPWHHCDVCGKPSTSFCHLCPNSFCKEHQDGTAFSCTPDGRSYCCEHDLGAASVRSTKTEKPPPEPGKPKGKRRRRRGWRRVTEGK

[8] = target: T2, Mannose-6-phosphate isomerase (Homo sapiens, UniProt P34949); assay: MPI inhibition at elevated mannose 6-phosphate – biochemical, fluorescence intensity, high mannose 6-phosphate, primary screen (AID 1220)
T2 sequence (P34949 whole entry): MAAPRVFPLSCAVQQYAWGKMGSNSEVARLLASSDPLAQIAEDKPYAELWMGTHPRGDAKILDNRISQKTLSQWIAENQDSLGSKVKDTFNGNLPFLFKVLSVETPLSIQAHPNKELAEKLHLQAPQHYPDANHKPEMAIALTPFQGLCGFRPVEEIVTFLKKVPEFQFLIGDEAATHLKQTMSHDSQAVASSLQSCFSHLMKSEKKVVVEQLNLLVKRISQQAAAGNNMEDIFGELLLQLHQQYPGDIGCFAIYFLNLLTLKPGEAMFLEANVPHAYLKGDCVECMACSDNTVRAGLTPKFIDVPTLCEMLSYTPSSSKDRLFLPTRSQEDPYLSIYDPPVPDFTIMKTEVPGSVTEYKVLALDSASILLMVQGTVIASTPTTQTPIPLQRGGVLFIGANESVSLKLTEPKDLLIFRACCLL

[9] = DRD fibroblast viability loss – cell-based, non-viral oncogenic, luminescence, dose response (AID 1934); type: functional; details: Homo sapiens
[10] = target: T3, Ubiquitin-conjugating enzyme E2 N (Homo sapiens, UniProt P61088); type: functional
T3 sequence (P61088 whole entry): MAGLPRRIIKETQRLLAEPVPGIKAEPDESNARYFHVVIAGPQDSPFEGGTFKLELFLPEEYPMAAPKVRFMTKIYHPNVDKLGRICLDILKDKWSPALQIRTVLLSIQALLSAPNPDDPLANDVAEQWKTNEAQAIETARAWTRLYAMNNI

HEK293 = assay: membrane integrity loss in HEK cells – cell-based, fluorescence, cytotoxicity control for IDE activator project, dose response (AID 588440); type: functional; details: Homo sapiens;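 also: cytotoxicity by LDH release measuring loss of membrane integrity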

RAC-gamma serine/threonine-protein kinase, sequence (Q9Y243 whole entry): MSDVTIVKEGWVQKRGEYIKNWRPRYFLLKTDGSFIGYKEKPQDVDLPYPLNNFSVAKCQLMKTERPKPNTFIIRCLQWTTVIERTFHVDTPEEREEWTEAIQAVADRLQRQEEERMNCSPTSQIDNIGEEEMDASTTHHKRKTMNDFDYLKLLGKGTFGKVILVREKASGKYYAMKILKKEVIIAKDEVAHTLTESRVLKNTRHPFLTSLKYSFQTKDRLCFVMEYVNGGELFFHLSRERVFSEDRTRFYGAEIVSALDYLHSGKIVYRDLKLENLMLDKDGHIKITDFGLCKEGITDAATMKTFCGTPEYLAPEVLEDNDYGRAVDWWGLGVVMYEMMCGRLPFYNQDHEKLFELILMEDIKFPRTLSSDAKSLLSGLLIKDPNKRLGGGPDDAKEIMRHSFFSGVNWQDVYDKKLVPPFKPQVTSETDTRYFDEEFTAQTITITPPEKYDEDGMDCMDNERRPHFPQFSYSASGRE
Serine/threonine-protein kinase MRCK alpha, sequence (Q5VT25 whole entry): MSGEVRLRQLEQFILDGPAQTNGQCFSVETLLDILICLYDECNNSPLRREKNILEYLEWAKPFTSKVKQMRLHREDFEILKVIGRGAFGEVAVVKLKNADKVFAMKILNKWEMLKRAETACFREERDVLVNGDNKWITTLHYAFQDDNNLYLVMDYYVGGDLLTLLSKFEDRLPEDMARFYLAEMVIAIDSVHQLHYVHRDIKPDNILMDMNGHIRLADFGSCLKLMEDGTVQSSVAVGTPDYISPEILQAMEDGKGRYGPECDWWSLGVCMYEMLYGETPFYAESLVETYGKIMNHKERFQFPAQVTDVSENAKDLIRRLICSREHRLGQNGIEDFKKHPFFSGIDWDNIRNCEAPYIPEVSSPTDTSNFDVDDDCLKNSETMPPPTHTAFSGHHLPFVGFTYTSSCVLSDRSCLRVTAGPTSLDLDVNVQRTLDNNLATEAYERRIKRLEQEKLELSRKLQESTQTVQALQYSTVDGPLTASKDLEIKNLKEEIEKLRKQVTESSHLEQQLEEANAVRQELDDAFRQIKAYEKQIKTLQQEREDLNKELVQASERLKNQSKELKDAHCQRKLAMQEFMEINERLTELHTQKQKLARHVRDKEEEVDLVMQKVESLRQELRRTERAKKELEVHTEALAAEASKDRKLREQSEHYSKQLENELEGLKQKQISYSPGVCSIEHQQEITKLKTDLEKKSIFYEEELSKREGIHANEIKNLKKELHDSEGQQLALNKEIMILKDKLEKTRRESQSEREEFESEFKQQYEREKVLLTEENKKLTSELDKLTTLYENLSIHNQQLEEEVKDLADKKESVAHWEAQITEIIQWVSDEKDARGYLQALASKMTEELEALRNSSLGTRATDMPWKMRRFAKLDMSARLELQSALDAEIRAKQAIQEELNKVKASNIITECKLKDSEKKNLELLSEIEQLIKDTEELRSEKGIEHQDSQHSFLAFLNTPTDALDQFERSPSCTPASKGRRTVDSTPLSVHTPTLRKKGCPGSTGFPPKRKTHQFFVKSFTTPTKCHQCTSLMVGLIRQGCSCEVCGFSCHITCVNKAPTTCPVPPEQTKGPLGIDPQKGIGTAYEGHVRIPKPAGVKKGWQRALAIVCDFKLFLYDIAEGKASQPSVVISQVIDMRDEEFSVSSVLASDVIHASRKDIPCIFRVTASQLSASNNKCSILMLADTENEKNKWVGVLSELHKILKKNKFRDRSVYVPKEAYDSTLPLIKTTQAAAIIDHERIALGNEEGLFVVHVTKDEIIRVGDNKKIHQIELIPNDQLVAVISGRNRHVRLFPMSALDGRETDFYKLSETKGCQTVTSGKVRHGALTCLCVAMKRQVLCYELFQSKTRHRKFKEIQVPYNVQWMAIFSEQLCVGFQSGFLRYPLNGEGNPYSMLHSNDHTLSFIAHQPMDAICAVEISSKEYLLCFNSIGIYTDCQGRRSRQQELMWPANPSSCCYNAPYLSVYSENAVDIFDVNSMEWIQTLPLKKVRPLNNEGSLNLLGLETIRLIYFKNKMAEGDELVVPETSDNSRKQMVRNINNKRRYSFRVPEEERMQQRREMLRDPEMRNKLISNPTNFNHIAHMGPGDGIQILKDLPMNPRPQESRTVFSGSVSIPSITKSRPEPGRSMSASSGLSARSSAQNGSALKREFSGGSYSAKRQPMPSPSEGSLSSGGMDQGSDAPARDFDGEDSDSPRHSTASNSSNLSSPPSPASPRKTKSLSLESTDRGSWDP
Cyclin-dependent kinase 1, sequence (P06493 whole entry): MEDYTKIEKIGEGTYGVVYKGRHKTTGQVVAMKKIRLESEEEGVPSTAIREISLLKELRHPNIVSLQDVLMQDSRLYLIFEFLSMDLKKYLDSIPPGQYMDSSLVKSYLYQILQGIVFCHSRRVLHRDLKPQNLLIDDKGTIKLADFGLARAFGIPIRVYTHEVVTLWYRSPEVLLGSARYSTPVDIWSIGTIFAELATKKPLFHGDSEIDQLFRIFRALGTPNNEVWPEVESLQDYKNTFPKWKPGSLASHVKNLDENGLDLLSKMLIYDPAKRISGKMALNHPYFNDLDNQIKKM
Mitogen-activated protein kinase 8, sequence (P45983 whole entry): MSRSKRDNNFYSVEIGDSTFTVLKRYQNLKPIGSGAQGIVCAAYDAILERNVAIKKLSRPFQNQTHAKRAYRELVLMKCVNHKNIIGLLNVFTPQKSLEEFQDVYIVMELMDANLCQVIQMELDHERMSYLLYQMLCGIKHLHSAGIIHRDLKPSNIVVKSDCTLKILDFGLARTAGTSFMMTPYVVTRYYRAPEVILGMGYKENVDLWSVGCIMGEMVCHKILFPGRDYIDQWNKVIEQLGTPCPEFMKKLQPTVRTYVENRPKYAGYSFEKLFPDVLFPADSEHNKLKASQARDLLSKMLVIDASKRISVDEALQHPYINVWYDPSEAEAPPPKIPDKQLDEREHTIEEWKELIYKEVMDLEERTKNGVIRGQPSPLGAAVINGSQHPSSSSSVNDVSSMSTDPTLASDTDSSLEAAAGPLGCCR
Hepatocyte growth factor receptor, sequence (P08581 whole entry): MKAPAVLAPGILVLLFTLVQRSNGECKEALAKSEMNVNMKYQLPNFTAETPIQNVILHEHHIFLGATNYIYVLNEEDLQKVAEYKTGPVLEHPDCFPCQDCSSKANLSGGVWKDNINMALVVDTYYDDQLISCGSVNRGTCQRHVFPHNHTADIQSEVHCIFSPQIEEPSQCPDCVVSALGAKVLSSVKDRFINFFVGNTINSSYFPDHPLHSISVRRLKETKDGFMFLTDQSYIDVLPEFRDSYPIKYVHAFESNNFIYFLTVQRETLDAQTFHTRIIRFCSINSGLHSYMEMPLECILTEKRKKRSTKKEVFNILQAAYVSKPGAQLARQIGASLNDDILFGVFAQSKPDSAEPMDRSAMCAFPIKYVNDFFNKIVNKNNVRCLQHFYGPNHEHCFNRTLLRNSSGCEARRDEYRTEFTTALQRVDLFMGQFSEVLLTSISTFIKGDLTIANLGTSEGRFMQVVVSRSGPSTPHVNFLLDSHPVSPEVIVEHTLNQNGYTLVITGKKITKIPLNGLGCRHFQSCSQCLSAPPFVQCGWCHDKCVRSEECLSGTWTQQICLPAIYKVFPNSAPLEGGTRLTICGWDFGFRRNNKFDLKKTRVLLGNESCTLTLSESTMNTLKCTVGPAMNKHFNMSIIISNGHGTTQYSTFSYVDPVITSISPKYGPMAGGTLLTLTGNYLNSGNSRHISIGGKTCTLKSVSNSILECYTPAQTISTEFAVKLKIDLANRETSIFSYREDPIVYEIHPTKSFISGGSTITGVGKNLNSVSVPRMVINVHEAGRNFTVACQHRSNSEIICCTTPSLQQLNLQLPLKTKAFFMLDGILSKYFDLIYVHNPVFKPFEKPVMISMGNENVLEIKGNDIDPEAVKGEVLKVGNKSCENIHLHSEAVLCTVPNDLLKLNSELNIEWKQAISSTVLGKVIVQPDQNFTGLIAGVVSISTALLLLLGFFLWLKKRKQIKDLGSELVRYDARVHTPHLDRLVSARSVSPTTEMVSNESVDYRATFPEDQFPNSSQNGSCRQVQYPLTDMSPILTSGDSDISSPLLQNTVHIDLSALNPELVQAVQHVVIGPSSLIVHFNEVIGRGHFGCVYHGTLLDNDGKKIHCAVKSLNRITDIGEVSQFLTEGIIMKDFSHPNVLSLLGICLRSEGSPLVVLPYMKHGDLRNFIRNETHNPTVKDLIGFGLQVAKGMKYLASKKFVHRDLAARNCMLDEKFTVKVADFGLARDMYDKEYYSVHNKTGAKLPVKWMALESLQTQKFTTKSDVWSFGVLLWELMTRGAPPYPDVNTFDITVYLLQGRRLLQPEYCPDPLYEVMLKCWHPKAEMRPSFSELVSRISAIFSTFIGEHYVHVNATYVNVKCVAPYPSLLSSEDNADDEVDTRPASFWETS

Ki [1]: 631 nM (active) | Ki [2]: 398 nM (active) | Ki [3]: 2510 nM (active) | Ki [4]: 1000 nM (active) | Ki [5]: 316 nM (active) | Ki [6]: > 3160 nM (inactive)
SMILES: CC(=NNC(=N)N)c1cc(NC(=O)NCCCCCCNC(=O)Nc2cc(C(C)=NNC(=N)N)cc(C(C)=NNC(=N)N)c2)cc(C(C)=NNC(=N)N)c1

SMILES: CCC(C)NC(=O)c1c(N)n(CCCOC)c2nc3ccccc3nc12 (stereo unspecified)
AC50 [7]: 4250 nM (active) | IC50 [8]: > 50000 nM (not active)

SMILES: Cc1cc(N)c2cc(NC(=O)/C=C/c3ccccc3Cl)ccc2n1
EC50 [9]: 2880 nM (active) | IC50 [10]: 3000 nM (active) | IC50 (HEK293): 2630 nM (active)
